Measurements taken from patent US20150119394A1, “Insulin-Like Growth Factor-1 Receptor Inhibitors” (Merck Sharp & Dohme Corp., priority 2012, published 2015).

The compounds below were run against T1, intracellular kinase domain of human IGF-1R (GST fusion protein) (Homo sapiens, UniProt P08069) (assay: In vitro IGF-1R kinase assay (HTRF)). Settings: ATP 20 μM, IGFRK 0.25 nM.
T1 construct: IGFRK and IRK enzyme used for the assay was intracellular kinase domain of human IGF-1R; GST; made in house
T1 sequence (P08069 999-1274 limits assumed): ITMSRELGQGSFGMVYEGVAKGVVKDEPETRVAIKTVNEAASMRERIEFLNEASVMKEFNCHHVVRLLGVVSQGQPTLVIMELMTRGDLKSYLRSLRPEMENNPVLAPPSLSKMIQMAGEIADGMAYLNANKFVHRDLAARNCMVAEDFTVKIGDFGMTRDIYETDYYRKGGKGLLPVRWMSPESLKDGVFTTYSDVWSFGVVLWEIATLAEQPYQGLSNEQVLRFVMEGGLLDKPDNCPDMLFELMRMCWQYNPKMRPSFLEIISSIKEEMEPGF
Format: biochemical
Procedure: The in vitro kinase assays using IGF-1R and IR kinase GST fusion proteins were conducted using a homogeneous time-resolved fluorescence (HTRF) format. Kinase reactions were carried out in a 384-well plate format in a final volume of 20 μL. The standard enzyme reaction buffer consisted of 50 mM Tris HCL (pH: 7.4), 1 mM EGTA, 10 mM MgCl2, 2 mM DTT, 0.01% Tween-20, IGF-1R/IR kinase enzyme, poly GT peptide substrate (Perkin Elmer [Ulight Glu-Tyr (4:1)]n) and ATP [concentration equivalent to Kmapp] […] Briefly, 2.5 μL enzyme and 2.5 μL inhibitor was preincubated for 10 minutes at 23° C. followed by the addition of 2.5 μL of poly GT substrate (final concentration of 50 nM). Reaction was initiated with the addition of 2.5 μL of ATP (final concentration of 20 μM for IGF-1R assay and 10 μM for IR assay). After 1 hour incubation at 23° C., the kinase reaction was stopped with the addition of 5 μL EDTA (final concentration of 10 mM in 20 μL). Europium cryptate—labeled antiphosphotyrosine antibody PY20 (5 μL) was added (final concentration of 2 nM) and the mixture was allowed to equilibrate for 1 hour at 23° C. followed by reading the plate in an Envision plate reader.
The intensity of light emission at 665 nm was directly proportional to the level of substrate phosphorylation. The IC50 values for inhibitors were determined by a four-parameter sigmoidal curve fit (Sigma plot or Graph pad).
IGFRK and IRK enzyme used for the assay was intracellular kinase domain of human IGF-1R and human IR cloned and expressed as GST fusion proteins using the baculovirus expression system and purified using glutathione—Sepharose column.
An IC50 of 8.5 nM was found for `NC(=O)c1[nH]c2ccc(Cl)cc2c1S(=O)(=O)N1CCO[C@H](COc2cccc(-c3ccncc3)c2)C1` [Compound 2, (S)-5-chloro-3-((2-((3-(pyridin-4-yl)phenoxy)methyl)morpholino)sulfonyl)-1H-indole-2-carboxamide] in this work.
An IC50 of 11.8 nM was found for `Cc1ccc(-c2cccc(OC[C@@H]3CN(S(=O)(=O)c4c(C(N)=O)[nH]c5ccc(Cl)cc45)CCO3)c2)cn1` [Compound 4, (S)-5-chloro-3-((2-((3-(6-methylpyridin-3-yl)phenoxy)methyl)morpholino)sulfonyl)-1H-indole-2-carboxamide] in this work.
An IC50 of 30.4 nM was found for `CN(C)c1ccc(-c2cccc(OC[C@@H]3CN(S(=O)(=O)c4c(C(N)=O)[nH]c5ccc(Cl)cc45)CCO3)c2)cn1` [Compound 5, (S)-5-chloro-3-((2-((3-(6-(dimethylamino)pyridin-3-yl)phenoxy)methyl)morpholino)sulfonyl)-1H-indole-2-carboxamide] in this work.
An IC50 of 65 nM was found for `NC(=O)c1[nH]c2ccc(Cl)cc2c1S(=O)(=O)N1CCO[C@H](COc2cccc(-c3ccc(C(F)(F)F)nc3)c2)C1` [Compound 6, (S)-5-chloro-3-((2-((3-(6-(trifluoromethyl)pyridin-3-yl)phenoxy)methyl)morpholino)sulfonyl)-1H-indole-2-carboxamide] in this work.
An IC50 of 15.5 nM was found for `NC(=O)c1[nH]c2ccc(Cl)cc2c1S(=O)(=O)N1CCO[C@H](COc2cccc(-c3ccc(F)nc3)c2)C1` [Compound 8, (S)-5-chloro-3-((2-((3-(6-fluoropyridin-3-yl)phenoxy)methyl)morpholino)sulfonyl)-1H-indole-2-carboxamide] in this work.
An IC50 of 199 nM was found for `Cc1ccccc1-c1cccc(OC[C@@H]2CN(S(=O)(=O)c3c(C(N)=O)[nH]c4ccc(Cl)cc34)CCO2)c1` [Compound 10, (S)-5-chloro-3-((2-(((2′-methyl-[1,1′-biphenyl]-3-yl)oxy)methyl)morpholino)sulfonyl)-1H-indole-2-carboxamide] in this work.
An IC50 of 15.4 nM was found for `NC(=O)c1[nH]c2ccc(Cl)cc2c1S(=O)(=O)N1CCO[C@H](COc2cccc(-c3ccc(F)cc3)c2)C1` [Compound 11, (S)-5-chloro-3-((2-(((4′-fluoro-[1,1′-biphenyl]-3-yl)oxy)methyl)morpholino)sulfonyl)-1H-indole-2-carboxamide] in this work.
An IC50 of over 100 nM was found for `NC(=O)c1[nH]c2ccc(Cl)cc2c1S(=O)(=O)N1CCO[C@H](COc2cccc(-c3cccc(F)c3)c2)C1` [Compound 12, (S)-5-chloro-3-((2-(((3′-fluoro-[1,1′-biphenyl]-3-yl)oxy)methyl)morpholino)sulfonyl)-1H-indole-2-carboxamide] in this work.
An IC50 of 3.4 nM was found for `NC(=O)c1[nH]c2ccc(Cl)cc2c1S(=O)(=O)N1CCO[C@H](COc2cccc(-c3ccnc(F)c3)c2)C1` [Compound 13, (S)-5-chloro-3-((2-((3-(2-fluoropyridin-4-yl)phenoxy)methyl)morpholino)sulfonyl)-1H-indole-2-carboxamide] in this work.
An IC50 of over 100 nM was found for `Cc1cccc(-c2cccc(OC[C@@H]3CN(S(=O)(=O)c4c(C(N)=O)[nH]c5ccc(Cl)cc45)CCO3)c2)c1` [Compound 14, (S)-5-chloro-3-((2-(((3′-methyl-[1,1′-biphenyl]-3-yl)oxy)methyl)morpholino)sulfonyl)-1H-indole-2-carboxamide] in this work.
An IC50 of 3.7 nM was found for `NC(=O)c1[nH]c2ccc(Cl)cc2c1S(=O)(=O)N1CCO[C@H](COc2cccc(-c3ccccn3)c2)C1` [Compound 15, (S)-5-chloro-3-((2-((3-(pyridin-2-yl)phenoxy)methyl)morpholino)sulfonyl)-1H-indole-2-carboxamide] in this work.
An IC50 of 2 nM was found for `COc1ncc(-c2cccc(OC[C@@H]3CN(S(=O)(=O)c4c(C(N)=O)[nH]c5ccc(Cl)cc45)CCO3)c2)cn1` [Compound 16, (S)-5-chloro-3-((2-((3-(2-methoxypyrimidin-5-yl)phenoxy)methyl)morpholino)sulfonyl)-1H-indole-2-carboxamide] in this work.
An IC50 of 7.3 nM was found for `COc1cc(-c2cccc(OC[C@@H]3CN(S(=O)(=O)c4c(C(N)=O)[nH]c5ccc(Cl)cc45)CCO3)c2)ccn1` [Compound 18, (S)-5-chloro-3-((2-((3-(2-methoxypyridin-4-yl)phenoxy)methyl)morpholino)sulfonyl)-1H-indole-2-carboxamide] in this work.
An IC50 of 2.9 nM was found for `Cc1cc(-c2cccc(OC[C@@H]3CN(S(=O)(=O)c4c(C(N)=O)[nH]c5ccc(Cl)cc45)CCO3)c2)ccn1` [Compound 19, (S)-5-chloro-3-((2-((3-(2-methylpyridin-4-yl)phenoxy)methyl)morpholino)sulfonyl)-1H-indole-2-carboxamide] in this work.
An IC50 of 184 nM was found for `Cc1ccc(OC[C@@H]2CN(S(=O)(=O)c3c(C(N)=O)[nH]c4ccc(Cl)cc34)CCO2)cc1-c1ccccc1F` [Compound 21, (S)-5-chloro-3-((2-(((2′-fluoro-6-methyl-[1,1′-biphenyl]-3-yl)oxy)methyl)morpholino)sulfonyl)-1H-indole-2-carboxamide] in this work.
An IC50 of 42.5 nM was found for `Cc1ccc(OC[C@@H]2CN(S(=O)(=O)c3c(C(N)=O)[nH]c4ccc(Cl)cc34)CCO2)cc1-c1cccnc1F` [Compound 22, (S)-5-chloro-3-((2-((3-(2-fluoropyridin-3-yl)-4-methylphenoxy)methyl)morpholino)sulfonyl)-1H-indole-2-carboxamide] in this work.
An IC50 of 132 nM was found for `COc1ccccc1-c1cc(OC[C@@H]2CN(S(=O)(=O)c3c(C(N)=O)[nH]c4ccc(Cl)cc34)CCO2)ccc1C` [Compound 23, (S)-5-chloro-3-((2-(((2′-methoxy-6-methyl-[1,1′-biphenyl]-3-yl)oxy)methyl)morpholino)sulfonyl)-1H-indole-2-carboxamide] in this work.
An IC50 of 293 nM was found for `Cc1ccccc1-c1cc(OC[C@@H]2CN(S(=O)(=O)c3c(C(N)=O)[nH]c4ccc(Cl)cc34)CCO2)ccc1C` [Compound 24, (S)-5-chloro-3-((2-(((2′,6-dimethyl-[1,1′-biphenyl]-3-yl)oxy)methyl)morpholino)sulfonyl)-1H-indole-2-carboxamide] in this work.
An IC50 of 53.3 nM was found for `COc1ccc(-c2cc(OC[C@@H]3CN(S(=O)(=O)c4c(C(N)=O)[nH]c5ccc(Cl)cc45)CCO3)ccc2C)cn1` [Compound 25, (S)-5-chloro-3-((2-((3-(6-methoxypyridin-3-yl)-4-methylphenoxy)methyl)morpholino)sulfonyl)-1H-indole-2-carboxamide] in this work.
An IC50 of 11.2 nM was found for `NC(=O)c1[nH]c2ccc(Cl)cc2c1S(=O)(=O)N1CCO[C@H](COc2ccc(F)c(-c3cccnc3)c2)C1` [Compound 26, (S)-5-chloro-3-((2-((4-fluoro-3-(pyridin-3-yl)phenoxy)methyl)morpholino)sulfonyl)-1H-indole-2-carboxamide] in this work.
An IC50 of 4.7 nM was found for `NC(=O)c1[nH]c2ccc(Cl)cc2c1S(=O)(=O)N1CCO[C@H](COc2ccc(F)c(-c3cncnc3)c2)C1` [Compound 27, (S)-5-chloro-3-((2-((4-fluoro-3-(pyrimidin-5-yl)phenoxy)methyl)morpholino)sulfonyl)-1H-indole-2-carboxamide] in this work.
An IC50 of 6.9 nM was found for `NC(=O)c1[nH]c2ccc(Cl)cc2c1S(=O)(=O)N1CCO[C@H](COc2ccc(F)c(-c3ccncc3)c2)C1` [Compound 28, (S)-5-chloro-3-((2-((4-fluoro-3-(pyridin-4-yl)phenoxy)methyl)morpholino)sulfonyl)-1H-indole-2-carboxamide] in this work.
An IC50 of 43.2 nM was found for `COc1ccc(-c2cc(OC[C@@H]3CN(S(=O)(=O)c4c(C(N)=O)[nH]c5ccc(Cl)cc45)CCO3)ccc2F)cn1` [Compound 29, (S)-5-chloro-3-((2-((4-fluoro-3-(6-methoxypyridin-3-yl)phenoxy)methyl)morpholino)sulfonyl)-1H-indole-2-carboxamide] in this work.
An IC50 of under 100 nM was found for `Cc1cc(-c2cc(OC[C@@H]3CN(S(=O)(=O)c4c(C(N)=O)[nH]c5ccc(Cl)cc45)CCO3)ccc2F)ccn1` [Compound 30, (S)-5-chloro-3-((2-((4-fluoro-3-(2-methylpyridin-4-yl)phenoxy)methyl)morpholino)sulfonyl)-1H-indole-2-carboxamide] in this work.
An IC50 of 8.7 nM was found for `NC(=O)c1[nH]c2ccc(Cl)cc2c1S(=O)(=O)N1CCO[C@H](COc2ccc(-c3cccnc3)cc2)C1` [Compound 31, (S)-5-chloro-3-((2-((4-(pyridin-3-yl)phenoxy)methyl)morpholino)sulfonyl)-1H-indole-2-carboxamide] in this work.
An IC50 of 30.2 nM was found for `NC(=O)c1[nH]c2ccc(Cl)cc2c1S(=O)(=O)N1CCO[C@H](COc2ccc(-c3ccccc3)cc2)C1` [Compound 33, (S)-3-((2-(([1,1′-biphenyl]-4-yloxy)methyl)morpholino)sulfonyl)-5-chloro-1H-indole-2-carboxamide] in this work.
An IC50 of over 1000 nM was found for `CN(C)c1ccc(-c2ccc(OC[C@@H]3CN(S(=O)(=O)c4c(C(N)=O)[nH]c5ccc(Cl)cc45)CCO3)cc2)cn1` [Compound 34, (S)-5-chloro-3-((2-((4-(6-(dimethylamino)pyridin-3-yl)phenoxy)methyl)morpholino)sulfonyl)-1H-indole-2-carboxamide] in this work.
An IC50 of over 1000 nM was found for `NC(=O)c1[nH]c2ccc(Cl)cc2c1S(=O)(=O)N1CCO[C@H](COc2ccc(-c3ccc(C(F)(F)F)nc3)cc2)C1` [Compound 35, (S)-5-chloro-3-((2-((4-(6-(trffluoromethyl)pyridin-3-yl)phenoxy)methyl)morpholino)sulfonyl)-1H-indole-2-carboxamide] in this work.
